From patent US20040029886A1, “Dihalopropene compounds, processes for their preparation, compositions comprising them and their use as pesticides” (priority 2001, published 2004)

Assays:
Assay type in all cases: in vivo
Parameters in all cases: key: compounds are considered to be active when, at a concentration of 500 ppm or less, their action on the harmful organisms is 50% or more
[1] = system: eggs of the American tobacco budworm (Heliothis virescens); experiment: Example C: eggs of American tobacco budworm, Petri dish with culture medium; conditions: 500 ppm or less; eggs dipped 5 seconds, 200 μl on culture medium; after 6 days
Experimental: (§1) In Examples A to L below, compounds are considered to be active when, at a concentration of 500 ppm or less, their action on the harmful organisms is 50% or more.
A Petri dish whose bottom was covered with filter paper and which contained about 5 ml of culture medium was prepared. Pieces of filter paper with about 30, one-day-old eggs of the American tobacco budworm (Heliothis virescens) were dipped for 5 seconds into an aqueous solution of the formulated preparation to be examined and subsequently placed in a Petri dish. A further 200 μl of the aqueous solution were spread over the culture medium. The Petri dish was closed and then stored at about 25° C. in a climatized chamber. After 6 days of storage, the effect of the preparation on the eggs and any larvae which may have hatched from these (mortality) was determined. The following examples were active: Nos. 6, 27, 28, 29, 31, 35, 39, 43, 45, 59, 97, 226, 227, 228, 229, 351, 356, 357, 592, 593, 595, 949, 1001, 1126, 1129, 1132.

[2] = system: larvae of the root gall nematode (Meloidogyne incognita); experiment: Example F: root gall nematode, contact action (part A) and soil drench action on cucumber (part B); conditions: 500 ppm or less; part A 6 days exposure, part B root galls on cucumber after 2 weeks (Abbott's formula)
Experimental: as §1
Part A of the examination (contact action): in a glass vessel, an aqueous solution of the formulated preparation to be examined was added to about 5000 freshly hatched active (mobile) larvae (2nd development stage) of the root gall nematode (Meloidogyne incognita) (final volume 20 ml). After 6 days of permanent exposure of the nematode larvae, the percentage of the individual larvae immobilized by the action of the preparation was determined in comparison to the untreated controls (nematicidal contact action in percent).
Part B of the examination (soil drench action): to this end, the entire solution from part A of the examination (active compound and pre-treated nematode larvae) was poured into a pot, filled with 60 ml of soil, into which three 9-day-old cucumber plants (Cucumis sativus) had been planted. This drench application reduced the active compound content based on the soil volume to one third of the active compound content in part A of the examination. After 2 weeks in a greenhouse at about 26° C. (watering: twice a day), the root balls of the cucumber plants were carefully washed out of the soil mixture contaminated with nematodes. The number of root galls per plant was counted and compared to the infection of untreated control plants. The reduction of the infection in percent as a criterion for the assessment of the activity was calculated using Abbott's formula (nematicidal soil drench action). The following examples were active: Nos. 6, 7, 29, 32, 34, 44, 356.

[3] = system: L2 larvae of the Egyptian cotton leaf worm (Spodoptera littoralis); experiment: Example D: L2 larvae of Egyptian cotton leaf worm, Petri dish with culture medium; conditions: 500 ppm or less, after 6 days
Experimental: as §1
A Petri dish whose bottom was covered with filter paper and which contained about 5 ml of culture medium was prepared. Five L2 larvae of the Egyptian cotton leaf worm (Spodoptera littoralis) were counted into small beakers. 200 μl of an aqueous solution of the formulated preparation to be examined were pipetted into the beaker. The treated larvae were then poured into the Petri dish, and a further 200 μl of the aqueous solution were distributed over the culture medium. The Petri dish was closed and then stored at about 25° C. in a climatized chamber. After 6 days of storage, the effect of the preparation on the larvae (mortality) was determined. The following examples were active: Nos. 27, 28, 29, 39, 43, 45, 59.

[4] = system: L2 larvae of the sugar beet armyworm (Spodoptera exigua); experiment: Example H: L2 larvae of sugar beet armyworm, Petri dish with culture medium; conditions: 500 ppm or less, after 6 days
Experimental: as §1
A Petri dish whose bottom was covered with filter paper and which contained […] of culture medium was prepared. Five L2 larvae of the sugar beet armyworm (Spodoptera exigua) were counted into a small beaker. 200 μl of an aqueous solution of the formulated preparation to be examined were pipetted into the beaker. The treated larvae were then poured into the Petri dish and a further 200 μl of the aqueous solution were distributed over the culture medium. The Petri dish was closed and then stored at 25° C. in a climatized chamber. After 6 days of storage, the effect of the preparation on the larvae (mortality) was determined. The following examples were active: Nos. 31, 97, 226, 227, 228, 229, 351, 356, 357, 592, 593, 595, 949, 1001, 1126, 1129, 1132.

[5] = system: black bean aphids (Aphis fabae); experiment: Example B: black bean aphids on field bean, dip treatment; conditions: 500 ppm or less; plants and aphids dipped 5 seconds; after 3 and 6 days
Excerpt: as §1
Germinated field bean seeds (Vicia faba) with radicles were transferred into brown glass bottles filled with tap water and subsequently populated with approximately 100 black bean aphids (Aphis fabae). Plants and aphids were then dipped for 5 seconds into an aqueous solution of the formulated preparation to be examined. After the solution had run off, plants and animals were stored in an acclimatized chamber (16 hours of light/day, 25° C., 40-60% relative atmospheric humidity). After 3 and 6 days of storage, the effect of the preparation on the aphids (mortality) was determined. The following examples were active: Nos. 33, 36, 357, 1126.

[6] = system: spider mites (Tetranychus urticae); experiment: Example A: spider mites on bean leaf, dip treatment; conditions: 500 ppm or less; leaf and mites dipped 5 seconds; after 6 days
Excerpt: as §1
Cut stems of bean plants (Phaseolus vulgaris) carrying one leaf were transferred into brown glass bottles filled with tap water and subsequently populated with approximately 100 spider mites (Tetranychus urticae). The plant leaf and the spider mites were then dipped for 5 seconds into an aqueous solution of the formulated preparation to be examined. After the solution had run off, plants and animals were stored in a climatized chamber (16 hours of light/day, 25° C., 40-60% relative atmospheric humidity). After 6 days of storage, the effect of the preparation on all stages of the spider mites was determined. The following examples were active: Nos. 43, 45, 97, 1132.

[7] = system: L2 larvae of the sugar beet armyworm (Spodoptera exigua); experiment: Example I: sugar beet armyworm L2 larvae on sprayed cotton leaves; conditions: 500 ppm or less, after 4 days
Experimental: as §1
Cotton plants were sprayed with an aqueous solution of the formulated preparation to be examined. After drying, leaves were cut off, placed into a Petri dish and populated with 5 L2 larvae of the sugar beet armyworm (Spodoptera exigua). After 4 days of storage at about 23° C., the effect of the preparation on the larvae (mortality) was determined. The following examples were active: Nos. 27, 28, 45, 59.

[8] = system: larvae of the diamondback moth (Plutella xylostella); experiment: Example L: diamondback moth larvae on sprayed cabbage leaf; conditions: 500 ppm or less, after 4 days
Experimental: as §1
A cabbage leaf was sprayed with an aqueous solution of the formulated preparation to be examined. After drying, the treated leaf was populated with larvae of the diamondback moth (Plutella xylostella). After 4 days of storage at about 25° C., the effect of the preparation on the larvae (mortality) was determined. The following examples were active: Nos. 27, 28, 45.

Compound	effect of the preparation on the eggs and any larvae hatched (mortality) [1]	effect of the preparation on the larvae (mortality) [4]	further results
CC(=O)c1cc(OCC=C(Cl)Cl)cc(Cl)c1OCCCc1ccc(Cl)cc1 [compound 6]	active	–	nematicidal contact action / nematicidal soil drench action [2]: active
CON=C(C)c1cc(OCC=C(Cl)Cl)cc(Cl)c1OCCCOc1ccc(C(F)(F)F)cn1 [compound 29]	active	–	effect of the preparation on the larvae (mortality) [3]: active; nematicidal contact action / nematicidal soil drench action [2]: active
NC(=S)c1cc(OCC=C(Cl)Cl)cc(Cl)c1OCCCOc1ccc(C(F)(F)F)cn1 [compound 31]	active	active	–
CC(CO)NC(=O)c1cc(OCC=C(Cl)Cl)cc(Cl)c1OCCCOc1ccc(C(F)(F)F)cn1 (stereo not shown) [compound 32]	–	–	nematicidal contact action / nematicidal soil drench action [2]: active
CCNC(=O)c1cc(OCC=C(Cl)Cl)cc(Cl)c1OCCCOc1ccc(C(F)(F)F)cn1 [compound 34]	–	–	nematicidal contact action / nematicidal soil drench action [2]: active
CON(C)C(=O)c1cc(OCC=C(Cl)Cl)cc(Cl)c1OCCCOc1ccc(C(F)(F)F)cn1 [compound 35]	active	–	–
CN(C)C(=O)c1cc(OCC=C(Cl)Cl)cc(Cl)c1OCCCOc1ccc(C(F)(F)F)cn1 [compound 36]	–	–	effect of the preparation on the aphids (mortality) [5]: active
CC(=O)c1cc(OCC=C(Cl)Cl)cc(Cl)c1OCCCCOc1ncc(Cl)cc1Cl [compound 43]	active	–	effect of the preparation on all stages of the spider mites [6]: active; effect of the preparation on the larvae (mortality) [3]: active
CC(=NO)c1cc(OCC=C(Cl)Cl)cc(Cl)c1OCCCCOc1ncc(Cl)cc1Cl [compound 44]	–	–	nematicidal contact action / nematicidal soil drench action [2]: active
CON=C(C)c1cc(OCC=C(Cl)Cl)cc(Cl)c1OCCCCOc1ncc(Cl)cc1Cl [compound 45]	active	–	effect of the preparation on all stages of the spider mites [6]: active; effect of the preparation on the larvae (mortality) [3]: active; effect of the preparation on the larvae (mortality) [7]: active; effect of the preparation on the larvae (mortality) [8]: active
OCC#Cc1cc(OCC=C(Cl)Cl)cc(Cl)c1OCCCOc1ccc(C(F)(F)F)cn1 [compound 227]	active	active	–
COCC#Cc1cc(OCC=C(Cl)Cl)cc(Cl)c1OCCCOc1ccc(C(F)(F)F)cn1 [compound 228]	active	active	–
C#Cc1cc(OCC=C(Cl)Cl)cc(Cl)c1OCCCOc1ccc(C(F)(F)F)cn1 [compound 229]	active	active	–
CSCc1noc(-c2cc(OCC=C(Cl)Cl)cc(Cl)c2OCCCOc2ccc(C(F)(F)F)cn2)n1 [compound 351]	active	active	–
Cc1noc(-c2cc(OCC=C(Cl)Cl)cc(Cl)c2OCCCOc2ccc(C(F)(F)F)cn2)n1 [compound 357]	active	active	effect of the preparation on the aphids (mortality) [5]: active
CCOC(=O)C=Cc1cc(OCC=C(Cl)Cl)cc(Cl)c1OCCCOc1ccc(C(F)(F)F)cn1 [compound 592]	active	active	–
COC(=O)C=Cc1cc(OCC=C(Cl)Cl)cc(Cl)c1OCCCOc1ccc(C(F)(F)F)cn1 [compound 593]	active	active	–
C=Cc1cc(OCC=C(Cl)Cl)cc(Cl)c1OCCCOc1ccc(C(F)(F)F)cn1 [compound 595]	active	active	–
